Source: patent US20240116885A1, “BENZOTHIAZOLE AND QUINOLINE DERIVATIVES AND THEIR USE” (Shanghai Yao Yuan Biotechnology Co., Ltd., priority 2020, published 2024)
Where a name gives a salt, the structure may show the parent alone.

Tests used:
[1] = biological target: ALPK1 (Homo sapiens (Human), UniProt Q96QP1); assay: ALPK1 in vitro kinase assay (HTRF, TIFA phosphorylation); type: biochemical; conditions: ADP-Heptose activated ALPK1
Description: ALPK1 kinase activity was measured in an in vitro assay using ADP-Heptose as the ALPK1 ligand and activator of its kinase activity and TIFA protein as the ALPK1 phosphorylation substrate. Since phosphorylated TIFA proteins oligomerize, Homogeneous Time-Resolved Fluorescence (HTRF) was used to measure protein:protein interaction between HA-tagged TIFA proteins as an indicator of TIFA phosphorylation.
In brief, dose-response studies were performed with HEK293 cells cultured in Dulbecco's Modified Eagle Medium (DMEM) supplemented 10% fetal bovine serum (FBS, Hyclone™) containing antibiotics (pen/strep, G418) in 384-well assay plates. Each well contained 0.1 mg TIFA, ALPK1 (2 nM final concentration in reaction mixture) and kinase buffer (100 mM of HEPES pH 7.4, 4 mM DTT, 40 mM MgCl2, 20 mM of β-Glycerol phosphate disodium salt, 0.4 mM of Na3VO4, 0.16 mg/mL). Titrations of the test compounds were prepared in dimethylsulphoxide (DMSO). The reaction was initiated by addition of ATP and ADP-Heptose.
For HTRF, samples were incubated with a Tb cryptate-labeled anti-HA antibody for capturing HA-tagged proteins according to the manufacturer's instructions (PerkinElmer™, CisBio™) and the fluorescence signal was quantified (Tecan Infinite F NANO+). HTRF signals were calculated as the HTRF ratio (ratio of fluorescence measured at 665 nm and 620 nm)×104 (thereby using the signal at 620 nm as an internal standard).
IC50 values were determined using 3- or 4-parameter logistic equation using GraphPad Prism version 6.00. The reference compound, A027, was used as a positive control for each plate.

[2] = system: ALPK1-dependent NFκB reporter gene activation; assay: NFκB gene reporter alkaline phosphatase assay in HEK293 G9 cells; type: cell-based; conditions: Homo sapiens; HEK293 G9 cells stimulated with D-glycero-D-manno-6-fluoro-heptose-1β-S-ADP
Description: An alkaline phosphatase reporter assay system was used to measure inhibition of ALPK1-dependent NFκB reporter gene activation. Briefly, HEK293 cells stably expressing an NF-kB reporter (referred to herein as “G9 cells”) were maintained in DMEM as described above. For the assay, cells were seeded into 96-well plates at a density of 10,000 cells/well in Freestyle™ 293 Expression Medium (ThermoFisher), and allowed to attach overnight. Cells were pretreated with serially diluted compounds for 30 min and then stimulated with D-glycero-D-manno-6-fluoro-heptose-1β-S-ADP. […] NFkB gene activation was detected using the chromogenic substrate, para-nitrophenyl phosphate (pNPP) according to the manufacturer's protocols (pNPP Phosphatase Assay, Beyotime Biotechnology).

[3] = biological target: T237M hALPK1 mutant (Homo sapiens (Human), UniProt Q96QP1, T237M); assay: Inhibition of IL-8 secretion in HEK293 cells (A2) stably expressing T237M hALPK1 mutant; type: cell-based; conditions: 40 hours with compound, IL-8 ELISA, relative to wild-type HEK293 cells, read-out: Half maximal inhibitory concentration (IC50) of IL-8 secretion in cells expressing T237M mutant
T237M hALPK1 mutant, sequence (Q96QP1 whole entry T237M): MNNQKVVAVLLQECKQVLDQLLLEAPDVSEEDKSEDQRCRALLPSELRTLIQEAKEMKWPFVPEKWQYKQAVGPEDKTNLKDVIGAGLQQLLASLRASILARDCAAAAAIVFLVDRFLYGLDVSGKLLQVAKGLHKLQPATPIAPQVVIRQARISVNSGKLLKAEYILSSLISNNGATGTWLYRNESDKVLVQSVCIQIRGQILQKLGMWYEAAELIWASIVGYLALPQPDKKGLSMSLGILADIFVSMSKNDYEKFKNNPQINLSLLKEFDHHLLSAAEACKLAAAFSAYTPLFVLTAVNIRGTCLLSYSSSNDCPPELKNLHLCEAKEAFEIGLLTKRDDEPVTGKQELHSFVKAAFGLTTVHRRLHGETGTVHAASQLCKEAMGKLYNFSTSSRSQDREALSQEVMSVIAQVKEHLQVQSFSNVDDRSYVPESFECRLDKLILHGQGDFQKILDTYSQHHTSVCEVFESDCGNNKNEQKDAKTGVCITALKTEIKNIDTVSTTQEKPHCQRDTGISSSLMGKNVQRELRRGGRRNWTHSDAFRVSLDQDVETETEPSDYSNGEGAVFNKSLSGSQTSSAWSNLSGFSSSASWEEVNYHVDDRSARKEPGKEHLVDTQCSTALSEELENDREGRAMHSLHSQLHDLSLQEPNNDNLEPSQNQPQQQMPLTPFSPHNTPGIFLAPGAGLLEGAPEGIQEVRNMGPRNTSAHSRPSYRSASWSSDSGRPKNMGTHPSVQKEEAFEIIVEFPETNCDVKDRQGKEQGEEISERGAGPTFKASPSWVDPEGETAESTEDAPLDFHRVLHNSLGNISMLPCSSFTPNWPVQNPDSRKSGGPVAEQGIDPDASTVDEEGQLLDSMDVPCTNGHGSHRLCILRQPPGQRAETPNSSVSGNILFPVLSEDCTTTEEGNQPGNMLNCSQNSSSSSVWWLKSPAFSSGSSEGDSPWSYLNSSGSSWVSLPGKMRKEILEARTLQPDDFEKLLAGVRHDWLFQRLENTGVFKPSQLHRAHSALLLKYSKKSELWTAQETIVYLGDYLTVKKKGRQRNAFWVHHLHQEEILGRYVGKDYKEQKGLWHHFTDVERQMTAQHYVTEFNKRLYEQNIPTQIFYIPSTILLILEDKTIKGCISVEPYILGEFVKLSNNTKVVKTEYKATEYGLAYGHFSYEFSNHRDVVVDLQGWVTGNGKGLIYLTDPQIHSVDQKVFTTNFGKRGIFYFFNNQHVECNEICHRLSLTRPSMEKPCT
Excerpt: (§1) Activating mutations in ALPK1 are associated with diseases and disorders such as cancer, spiroandenoma, spiroandenocarcinoma, ROSAH syndrome, and PFAPA syndrome. We conducted further experiments to evaluate the ability of representative compounds to inhibit ALPK1 in the context of two activating mutations, T237M and V1092A. In preliminary experiments we determined that IL-8 protein secretion was elevated in cells transiently transfected with human ALPK1 expression vectors containing each of these activating mutations. Accordingly, we used IL-8 secretion as an indicator of activated ALPK1 inhibition in cells expressing these mutations.
(§2) HEK293 cells were cultured as described above prior to transient transfection with either empty vector or an expression vector encoding (i) human ALPK1 (hALPK1), (ii) hALPK1 with the T237M activating mutation (hALPK1-T237M) (iii) hALPK1 with the V1092A activating mutation (hALPK1-V1092A), or (iv) a kinase dead ALPK1 mutant (hALPK1-T237M-D1194S). Transfection was performed according to manufacturer's protocols (Lipofectamine™ 3000, ThermoFisher). Transfected cells were selected, seeded onto 96-well plates and treated with serial dilutions of the test compounds for 6.5 hr. Following treatment, cell viability was determined using a luminescent cell viability assay (Cell Counting-Lite Assay or “CCL Assay” from Vazyme Biotech Co., Ltd.) and cell free supernatants were collected and analyzed for IL-8 protein by IL-8 ELISA as described above. […] As shown in the figure, very little IL-8 was detectable in cells transfected with any of the empty vector, hALPK1, or the kinase dead hALPK1 mutant. In contrast, both of the activating mutations in hALPK1 induced significant IL-8 secretion.
Next, we tested a representative set of compounds for inhibition of IL-8 secretion in cells expressing each of the activating ALPK1 mutants, T237M and V1092A. […] For the T237M mutant study, we produced an HEK293 cell line (“A2”) stably expressing the T237M hALPK1 mutant. A2 cells were cultured in the presence of test compound for 40 hours total. Fresh medium and compound were added at 24 hours. Cell viability and IL-8 secretion were determined 16 hours after the second addition of compound, using the CCL assay and IL-8 ELISA as described above.

[4] = biological target: hALPK1-V1092A (Homo sapiens (Human), UniProt Q96QP1, V1092A); assay: Inhibition of IL-8 secretion in HEK293 cells transiently transfected with hALPK1-V1092A; type: cell-based; conditions: transient transfection, 24 hours with compound, IL-8 ELISA, relative to wild-type HEK293 cells; read-out: Half maximal inhibitory concentration (IC50) of IL-8 secretion in cells expressing V1092A mutant
hALPK1-V1092A, sequence (Q96QP1 whole entry V1092A): as the sequence (Q96QP1 whole entry T237M) above, with M237T, V1092A counted along it
Excerpt: as §1, §2
For the V1092A mutant study shown in Table 4, HEK293 cells were transiently transfected with hALPK1-V1092A or hALPK1 (wildtype) expression vectors and then treated with test compounds for 24 hours. Fresh medium and compound were added at 18 hours.

[5] = system: Female MRL/MpJ-faslpr/J mice; assay: Efficacy study in SLE animal model; type: in vivo, mouse; conditions: 50 mg/kg PO QD
Description: A mouse model of systemic lupus erythematosus (SLE) was used to evaluate the ability of ALPK1 inhibitors to treat this condition. Female MRL/MpJ-faslpr/J mice were treated with test compound (T007) for 9 weeks. At about 13 weeks of age (study day 0), female mice were randomized into two treatment groups of 10 mice per group, and daily (QD) oral (PO) treatment with vehicle (5% PEG400, 95% methylcellulose [MC]) or the test compound, T007 (50 mg/kg) was initiated. The animals were euthanized for necropsy and tissue collection at age 22 weeks.

[6] = system: SD rat; assay: Efficacy study in sepsis induced acute kidney injury animal model (cecal ligation and puncture); type: in vivo; conditions: 20 mg/kg 2 hours prior to surgery, 24 hours post-surgery
Excerpt: Polymicrobial sepsis induced by cecal ligation and puncture (CLP) is the most frequently used model because it closely resembles the progression and characteristics of human sepsis. We used this model system to evaluate the effects of the compound T007 in sepsis. Briefly, the SD rat cecum was ligated with sterile silk thread, and then cecum was punctured twice with a needle, gently squeezed to express a small amount of fecal material, then the abdominal incision was closed. The test compound, T007 (20 mg/kg) was administered 2 hours prior to the surgery. 24 hours post-surgery, survival was recorded, plasma was collected for MCP-1 analysis, and kidneys were collected for gene expression analysis by Q-PCR.

[7] = kidney histopathology (right kidneys), vs vehicle

ALPK1, sequence (Q96QP1 whole entry): as the sequence (Q96QP1 whole entry T237M) above, with M237T counted along it

SMILES	IC50 [1] [nM]	IC50 [2] [nM]	IC50 [3] [nM]	IC50 [4] [nM]	Effects on SLE by proteinuria, serum anti-dsDNA antibody levels and kidney histopathology ([5]; age 13 to 22 weeks)	Urine protein score reduction in AUC ([5]; age 13 to 22 weeks, vs vehicle, p=0.100) [%]	Crescent scores reduction [5, 7] [%]	Glomerulus diameters reduction [5, 7] [%]	Protein cast scores reduction [5, 7] [%]	Urine protein scores reduction ([5]; mouse age 21 weeks, vs vehicle) [%]	Summed kidney scores reduction ([5]; vs vehicle) [%]	Survival rate [6]	Plasma MCP-1 concentration by ELISA ([6]; p<0.001 vs CLP-Vehicle)	Kidney proinflammatory gene expression (IL6, TNFa, IL-1b, CCl2, KC) by Q-PCR ([6]; p<0.05 vs CLP-Vehicle)
C#Cc1cccc2sc(NC(=O)c3c(F)cc(N4CCNCC4)cc3F)nc12 [Compound T007, N-(4-ethynylbenzo[d]thiazol-2-yl)-2,6-difluoro-4-(piperazin-1-yl)benzamide]	4	470	68.3	409	statistically significant beneficial effects	34	62	38	70	55	34	improved the survival rate	improved	inhibited
COc1cccc2sc(NC(=O)c3c(F)cc(N4CCNCC4)cc3F)nc12 [Compound T017, 2,6-difluoro-N-(4-methoxybenzo[d]thiazol-2-yl)-4-(piperazin-1-yl)benzamide hydrochloride]	14	690	1470	5030										
O=C(Nc1nc2c(Br)cccc2s1)c1c(F)cc(N2CCNCC2)cc1F [Compound T019, N-(4-bromobenzo[d]thiazol-2-yl)-2,6-difluoro-4-(piperazin-1-yl)benzamide hydrochloride]	11	760	668	3170										
C#Cc1cccc2sc(NC(=O)c3c(F)cc(N4CCN(C)CC4)cc3F)nc12 [Compound T047, N-(4-ethynylbenzo[d]thiazol-2-yl)-2,6-difluoro-4-(4-methylpiperazin-1-yl)benzamide]	13	810	635	1810										
C#Cc1cccc2sc(NC(=O)c3c(F)cc(N4CCNC[C@@H]4C)cc3F)nc12 [Compound T054, (S)-N-(4-ethynylbenzo[d]thiazol-2-yl)-2,6-difluoro-4-(2-methylpiperazin-1-yl)benzamide]	36	270	225	226										
C#Cc1cccc2sc(NC(=O)c3c(F)ccc(N4CCNCC4)c3F)nc12 [Compound T060, N-(4-ethynylbenzo[d]thiazol-2-yl)-2,6-difluoro-3-(piperazin-1-yl)benzamide]	44	1250	2140	5380										
C#Cc1cc(F)cc2sc(NC(=O)c3c(F)ccc(N4CCNCC4)c3F)nc12 [Compound T064, N-(4-ethynyl-6-fluorobenzo[d]thiazol-2-yl)-2,6-difluoro-3-(piperazin-1-yl)benzamide]	51	1030	1690											
